Source: patent US10292968B2, “Substituted heterocycles as bromodomain inhibitors” (Zenith Epigenetics Ltd., priority 2014, dated 2019)
Structures can show the parent of a compound that is named as a salt.

Key:
cMYC = assay: Inhibition of cMYC expression (mRNA, real-time PCR) in MV4-11 cells; type: cell-based; conditions: Human AML MV4-11 cells, 3 h; for IC50: read-out: c-myc activity
Description: MV4-11 cells (CRL-9591) were plated at a density of 2.5×10^4 cells per well in 96 well U-bottom plates and treated with increasing concentrations of test compound or DMSO (0.1%) in IMDM media containing 10% FBS and penicillin/streptomycin, and incubated for 3 h at 37° C. Triplicate wells were used for each concentration. Cells were pelleted by centrifugation and harvested using the mRNA Catcher PLUS kit according to manufacturer's instructions. The eluted mRNA isolated was then used in a one-step quantitative real-time PCR reaction, using components of the RNA UltraSense™ One-Step Kit (Life Technologies) together with Applied Biosystems TaqMan® primer-probes for cMYC and Cyclophilin. Real-time PCR plates were run on a ViiA™7 real time PCR machine (Applied Biosystems), data was analyzed, normalizing the Ct values for cMYC to an internal control, prior to determining the fold expression of each sample, relative to the control.

MV4-11 cells = assay: Inhibition of cell proliferation in MV4-11 cells (Cell Titer Aqueous One); type: cell-based; conditions: Human AML MV-4-11 cells, 72 h; for IC50: MV4-11
Description: MV4-11 cells (CRL-9591) were plated at a density of 5×10^4 cells per well in 96 well flat bottom plates and treated with increasing concentrations of test compound or DMSO (0.1%) in IMDM media containing 10% FBS and penicillin/streptomycin. Triplicate wells were used for each concentration and a well containing only media was used as a control. Plates were incubated at 37° C., 5% CO2 for 72 h before adding 20 μL of the Cell Titer Aqueous One Solution (Promega) to each well and incubated at 37° C., 5% CO2 for an additional 3-4 h. The absorbance was read at 490 nm in a spectrophotometer and the percentage of cell titer relative to DMSO-treated cells was calculated after correcting for background by subtracting the blank well's signal. IC50 values were calculated using the GraphPad Prism software.

hIL-6 = assay: Inhibition of hIL-6 mRNA transcription in LPS-stimulated U937 cells; type: cell-based; conditions: Homo sapiens, U-937, PMA-differentiated U937 cells, 1 h pretreatment, LPS 3 h, read-out: IL-6 activity
Description: Human leukemic monocyte lymphoma U937 cells (CRL-1593.2) were plated at a density of 3.2×10^4 cells per well in a 96-well plate in 100 μL RPMI-1640 containing 10% FBS and penicillin/streptomycin, and differentiated into macrophages for 3 days in 60 ng/mL PMA ([…]) at 37° C. in 5% CO2 prior to the addition of compound. The cells were pretreated for 1 h with increasing concentrations of test compound in 0.1% DMSO prior to stimulation with 1 ug/mL lipopolysaccharide from Escherichia coli. Triplicate wells were used for each concentration. The cells were incubated at 37° C., 5% CO2 for 3 h before the cells were harvested. At time of harvest, media was removed and cells were rinsed in 200 μL PBS. Cells were harvested using the mRNA Catcher PLUS kit according to manufacturer's instructions. The eluted mRNA was then used in a one-step quantitative real-time PCR reaction using components of the RNA UltraSense™ One-Step Kit (Life Technologies) together with Applied Biosystems TaqMan® primer-probes for hIL-6 and Cyclophilin. Real-time PCR plates were run on a ViiA™7 real time PCR machine (Applied Biosystems), data was analyzed, normalizing the Ct values for hIL-6 to an internal control, prior to determining the fold expression of each sample, relative to the control.

[1] = biological target: T1, Brd4 bromodomain 1 (BRD4(1)) (Homo sapiens, UniProt O60885); assay: AlphaScreen inhibition of tetra-acetylated histone H4 binding to BRD4(1); conditions: BRD4(1) at 20 nM, tetra-acetylated histone H4 peptide, 30 min incubation; read-out: Alpha Screen BRD4(1)
T1 construct: N-terminally His-tagged bromodomains (BRD4(1) at 20 nM and BRD4(2) at 100 nM); made in house; host or cells: E. coli BL21(DE3)
Description: (§1) Proteins were cloned and overexpressed with a N-terminal 6×His tag, then purified by nickel affinity followed by size exclusion chromatography. Briefly, E. coli BL21(DE3) cells were transformed with a recombinant expression vector encoding N-terminally Nickel affinity tagged bromodomains from Brd2, Brd3, Brd4. Cell cultures were incubated at 37° C. with shaking to the appropriate density and induced overnight with IPTG. The supernatant of lysed cells was loaded onto Ni-IDA column for purification. Eluted protein was pooled, concentrated and further purified by size exclusion chromatography. Fractions representing monomeric protein were pooled, concentrated, aliquoted, and frozen at −80° C. for use in subsequent experiments.
(§2) Binding of tetra-acetylated histone H4 peptide (Millipore) and BET bromodomains was confirmed by Amplified Luminescent Proximity Homogenous Assay (AlphaScreen). N-terminally His-tagged bromodomains (BRD4(1) at 20 nM and BRD4(2) at 100 nM) and biotinylated tetra-acetylated histone H4 (10-25 nM) were incubated in the presence of nickel chelate acceptor beads and streptavidin donor beads (PerkinAlmer, 6760000K) added to a final concentration of 2 μg/ml under green light in a white 96 well microtiter plate (Greiner). For inhibition assays, serially diluted compounds were added to the reaction mixtures in a 0.1% final concentrations of DMSO. Final buffer concentrations were 50 mM HEPES, 100 mM NaCl and 0.1% BSA buffer, pH 7.4 and optimized to 30 min incubation time. Assay plates were read at 570 nm on a Synergy H4 Plate Reader (Biotek). IC50 values were determined from a dose response curve.

[2] = biological target: T2, Brd 4 bromodomain 2 (BRD4(2)) (Homo sapiens, UniProt O60885); assay: AlphaScreen inhibition of tetra-acetylated histone H4 binding to BRD4(2); conditions: BRD4(2) at 100 nM, tetra-acetylated histone H4 peptide, 30 min incubation; for IC50: read-out: Alpha Screen BRD4(2)
T2 construct: N-terminally His-tagged bromodomains (BRD4(1) at 20 nM and BRD4(2) at 100 nM); made in house; host or cells: E. coli BL21(DE3)
Description: as §1, §2

IC50 (cMYC)	IC50 (MV4-11 cells)	IC50 (hIL-6)	IC50 [1]	IC50 [2]	Alpha Screen BRD4(2) [2]	SMILES	c-myc activity (cMYC)	Cell Proliferation activity (MV4-11 cells)
3 to 30 µM	3 to 30 µM	3 to 30 µM	≤ 300 nM	3 to 30 µM		CC(=O)c1cccc(-c2[nH]c(-c3ccccc3)nc2-c2n[nH]c(=O)n2C2CC2)c1 [Example 1, 3-(5-(3-acetylphenyl)-2-phenyl-1H-imidazol-4-yl)-4-cyclopropyl-1H-1,2,4-triazol-5(4H)-one hydrochloride]		
3 to 30 µM	3 to 30 µM	3 to 30 µM	≤ 300 nM		Not Active	Cn1ncc2ccc(-c3[nH]c(-c4ccccc4)nc3-c3n[nH]c(=O)n3C3CC3)cc21 [Example 7, 4-cyclopropyl-3-(5-(1-methyl-1H-indazol-6-yl)-2-phenyl-1H-imidazol-4-yl)-1H-1,2,4-triazol-5(4H)-one hydrochloride]		
		3 to 30 µM	≤ 300 nM		Not Active	CC(=O)c1cc(-c2[nH]c(-c3ccccc3)nc2-c2n[nH]c(=O)n2C2CC2)ccc1F [Example 8, 3-(5-(3-acetyl-4-fluorophenyl)-2-phenyl-1H-imidazol-4-yl)-4-cyclopropyl-1H-1,2,4-triazol-5(4H)-one hydrochloride]	Not Active	Not Active
3 to 30 µM	3 to 30 µM	3 to 30 µM	300 to 3000 nM		Not Active	CC(=O)c1cc(F)cc(-c2[nH]c(-c3ccccc3)nc2-c2n[nH]c(=O)n2C2CC2)c1 [Example 9, 3-(5-(3-acetyl-5-fluorophenyl)-2-phenyl-1H-imidazol-4-yl)-4-cyclopropyl-1H-1,2,4-triazol-5(4H)-one hydrochloride]		
			3000 to 30000 nM	0.3 to 3 µM		Cn1ncc2cc(-c3[nH]c(-c4ccccc4)nc3-c3n[nH]c(=O)n3C3CC3)ccc21 [Example 10, 4-cyclopropyl-3-(5-(1-methyl-1H-indazol-5-yl)-2-phenyl-1H-imidazol-4-yl)-1H-1,2,4-triazol-5(4H)-one hydrochloride]	Not Active	Not Active
3 to 30 µM	3 to 30 µM		300 to 3000 nM	0.3 to 3 µM		Cc1n[nH]c2ccc(-c3[nH]c(-c4ccccc4)nc3-c3n[nH]c(=O)n3C3CC3)cc12 [Example 13, 4-cyclopropyl-3-(5-(3-methyl-1H-indazol-5-yl)-2-phenyl-1H-imidazol-4-yl)-1H-1,2,4-triazol-5(4H)-one hydrochloride]		
3 to 30 µM	3 to 30 µM	3 to 30 µM	≤ 300 nM	≤ 0.3 µM		Cn1nnc2ccc(-c3[nH]c(-c4ccccc4)nc3-c3n[nH]c(=O)n3C3CC3)cc21 [Example 14, 4-cyclopropyl-3-(5-(1-methyl-1H-benzo[d][1,2,3]triazol-6-yl)-2-phenyl-1H-imidazol-4-yl)-1H-1,2,4-triazol-5(4H)-one hydrochloride]		
